IC50 data for 19 molecules are collected here from US12018023B2 (NERVIANO MEDICAL SCIENCES S.R.L., priority 2018, dated 2024).

Format in all cases: biochemical
In one assay the target is T1, IDH2^R172K (Homo sapiens, UniProt P48735, R172K).
T1 construct: purchased not specified
T1 sequence (P48735 40-452 R172K): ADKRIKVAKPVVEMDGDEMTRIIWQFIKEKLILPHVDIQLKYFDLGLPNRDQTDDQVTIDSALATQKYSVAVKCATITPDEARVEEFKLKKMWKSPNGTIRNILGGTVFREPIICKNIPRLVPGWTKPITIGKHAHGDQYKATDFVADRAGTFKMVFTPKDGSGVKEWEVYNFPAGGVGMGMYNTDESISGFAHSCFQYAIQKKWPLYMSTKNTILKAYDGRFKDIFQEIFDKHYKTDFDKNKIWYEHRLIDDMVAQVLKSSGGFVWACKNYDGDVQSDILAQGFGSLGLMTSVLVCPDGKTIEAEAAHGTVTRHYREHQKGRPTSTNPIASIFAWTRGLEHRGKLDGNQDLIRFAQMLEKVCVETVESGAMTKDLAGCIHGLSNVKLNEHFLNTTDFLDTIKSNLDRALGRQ
The assay is described as follows: NADPH depletion assay, IDH2 R172K. On the procedure:
IDH mutated enzyme activity converting alpha-ketoglutarate to 2-hydroxyglutaric acid is measured using a NADPH depletion assay. In the assay the remaining cofactor is measured at the end of the reaction with the addition of a catalytic excess of diaphorase and resazurin, to generate a fluorescent signal in proportion to the amount of NADPH remaining. IDH1 WT enzyme as well as mutated isoforms IDH1^R132H, IDH1^R132C, and IDH^2R172K enzymes are commercially available proteins (see e.g. Sino Biological, Abcam, Active Motif or Creative BioMart).
IDH1^R132H homodimer enzyme are diluted to 8 nM, in 10 μL of Assay Buffer (150 mM NaCl, 50 mM Tris-HCl pH 7.6, 10 mM MgCl2, 0.001% Triton X-100, 4 mM β-mercaptoethanol); 0.2 uL of test compound, previously serially diluted 1 to 3, >10 experimental points from 1 mM in DMSO, is added and the mixture is incubated for 15 minutes at room temperature. The reaction is started with the addition of 10 μL of Substrate Mix (12 uM NADPH, 3.4 mM alpha-ketoglutarate in Assay Buffer) and the mixture is incubated for 60 minutes at room temperature. The reaction is terminated with the addition of 5 μl of Detection Buffer (100 μg/mL diaphorase, 30 μM resazurin, in IX Assay Buffer), and is incubated for 15 minute before reading on a ViewLux as platereader at Ex544/Em590.
Compounds are assayed for their activity against IDH2^R172K following the same assay as above with the following modifications: IDH2^R172K and alpha-ketoglutarate final concentrations in the Assay Buffer is 16 nM and 0.55 mM, respectively.

The target of assay [1] is T2, IDH1^R132H homodimer enzyme (Homo sapiens, UniProt O75874, R132H).
T2 construct: purchased not specified
T2 sequence (O75874 whole entry R132H): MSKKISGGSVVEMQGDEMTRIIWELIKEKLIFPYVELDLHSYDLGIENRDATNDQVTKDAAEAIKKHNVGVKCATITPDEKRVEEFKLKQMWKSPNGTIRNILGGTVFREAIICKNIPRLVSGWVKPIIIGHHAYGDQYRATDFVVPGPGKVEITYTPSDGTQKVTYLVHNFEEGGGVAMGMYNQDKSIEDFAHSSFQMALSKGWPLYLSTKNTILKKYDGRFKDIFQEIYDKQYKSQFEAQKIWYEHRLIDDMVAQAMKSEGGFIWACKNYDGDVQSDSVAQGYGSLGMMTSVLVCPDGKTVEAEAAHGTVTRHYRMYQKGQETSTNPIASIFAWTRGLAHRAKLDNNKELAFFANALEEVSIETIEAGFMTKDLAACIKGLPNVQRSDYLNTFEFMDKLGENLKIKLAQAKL
Put plainly: NADPH depletion assay, IDH1 R132H. The method, boiled down: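 IDH1 R132H enzyme (8 nM as diluted) in Tris-HCl pH 7.6 with 10 mM MgCl2, 0.001% Triton X-100 and 4 mM β-mercaptoethanol is preincubated 15 min at RT with compound. Substrate mix (12 uM NADPH, 3.4 mM α-ketoglutarate) is added for 60 min; remaining NAD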

For another assay, the target named is T3, IDH1^R132C (Homo sapiens, UniProt O75874, R132C).
T3 construct: purchased not specified
T3 sequence (O75874 whole entry R132C): as the sequence (O75874 whole entry R132H) above, with H132C counted along it
Put plainly: NADPH depletion assay, IDH1 R132C. The gist of the method: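 Fluorescence readout (Ex544/Em590) of NADPH left after diaphorase/resazurin addition. Alpha-ketoglutarate 0.14 mM final, enzyme 2 nM final; compound preincubation 15 min, then 60 min reaction, both at room temperature, pH 7.6 Tris buffer.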

Each structure is given as a SMILES string.

As usually defined, the IC50 is the concentration that gives 50% inhibition. With `C[C@H](Nc1ncc2ccc(=O)n(CC(C)(C)C)c2n1)c1ccc(CN2CCC(F)(F)C2)cc1` [cpd 148, 2-{[(1S)-1-{4-[(3,3-difluoropyrrolidin-1-yl)methyl]phenyl}ethyl]amino}-8-(2,2-dimethylpropyl)pyrido[2,3-d]pyrimidin-7(8H)-one], the values for the IC50 (against IDH2^R172K; in assay [1]; on IDH1^R132C) were 5830 nM, 187 nM and 109 nM, respectively.
In the same order, the values of `C[C@H](Nc1ncc2ccc(=O)n(CC(C)(C)C)c2n1)c1ccc(Br)cc1` [cpd 34, 2-{[(1S)-1-(4-bromophenyl)ethyl]amino}-8-(2,2-dimethylpropyl)pyrido[2,3-d]pyrimidin-7(8H)-one] are 3350 nM, 219 nM and 135 nM.
In the same order, the values of `C[C@H](Nc1ncc2ccc(=O)n(Cc3ccc(OC(F)(F)F)cc3)c2n1)c1ccc(Cl)cc1` [cpd 26, 2-{[(1S)-1-(4-chlorophenyl)ethyl]amino}-8-[4-(trifluoromethoxy)benzyl]pyrido[2,3-d]pyrimidin-7(8H)-one] are 2200 nM, 2360 nM and 1260 nM.
In the same order, the values of `CCC(C)n1c(=O)ccc2cnc(N[C@@H](C)c3ccc(CN4CCCC(F)(F)C4)cc3)nc21` (stereo partly drawn) [cpd 61, 8-(butan-2-yl)-2-{[(1S)-1-{4-[(3,3-difluoropiperidin-1-yl)methyl]phenyl}ethyl]amino}pyrido[2,3-d]pyrimidin-7(8H)-one] are 5020 nM, 71 nM and 38 nM.
In the case of `C[C@H](Nc1ncc2ccc(=O)n(CC(C)(C)C)c2n1)c1ccc(OC2CCN(C(=O)OC(C)(C)C)CC2)cc1` [cpd 154, 4-(4-{(S)-1-[8-(2,2-Dimethyl-propyl)-7-oxo-7,8-dihydro-pyrido[2,3-d]pyrimidin-2-ylamino]-ethyl}-phenoxy)-piperidine-1-carboxylic acid tert-butyl ester], the IC50 on IDH2^R172K worked out at 5380 nM; in assay [1] it was 199 nM; against IDH1^R132C, 79 nM.
In the same order, the values of `C[C@H](Nc1ncc2ccc(=O)n(CC(C)(C)C)c2n1)c1ccc(CN2CCC(F)(F)CC2)cc1F` [cpd 152, 2-{[(1S)-1-{4-[(4,4-difluoropiperidin-1-yl)methyl]-2-fluorophenyl}ethyl]amino}-8-(2,2-dimethylpropyl)pyrido [2,3-d]pyrimidin-7(8H)-one] are 5620 nM, 158 nM and 65 nM.
In the same order, the values of `COc1cccc(Cn2c(=O)ccc3cnc(N[C@@H](C)c4ccc(Cl)cc4)nc32)c1` [cpd 30, 2-{[(1S)-1-(4-chlorophenyl)ethyl]amino}-8-(3-methoxybenzyl)pyrido[2,3-d]pyrimidin-7(8H)-one] are 2520 nM, 1340 nM and 406 nM.
In the same order, the values of `C[C@H](Nc1ncc2ccc(=O)n(Cc3cccc(O)c3)c2n1)c1ccc(Cl)cc1` [cpd 71, 2-{[(1S)-1-(4-chlorophenyl)ethyl]amino}-8-(3-hydroxybenzyl)pyrido[2,3-d]pyrimidin-7(8H)-one] are 4830 nM, 2480 nM and 964 nM.
Turning to `CC(C)[C@H](C)n1c(=O)ccc2cnc(N[C@@H](C)c3ccc(C4=CCN(C(=O)OC(C)(C)C)CC4)cc3)nc21` [cpd 167, tert-butyl 4-{4-[(1S)-1-({8-[(2S)-3-methylbutan-2-yl]-7-oxo-7,8-dihydropyrido[2,3-d]pyrimidin-2-yl}amino)ethyl]phenyl}-3,6-dihydropyridine-1(2H)-carboxylate], the IC50 against IDH2^R172K is 2560 nM; in assay [1], 30 nM; on IDH1^R132C, 23 nM.
In the same order, the values of `C[C@H](Nc1ncc2ccc(=O)n(Cc3ccc(C#N)cc3)c2n1)c1ccc(Cl)cc1` [cpd 27, 4-{[2-{[(1S)-1-(4-chlorophenyl)ethyl]amino}-7-oxopyrido[2,3-d]pyrimidin-8(7H)-yl]methyl}benzonitrile] are 2600 nM, 1070 nM and 336 nM.
In the same order, the values of `C[C@H](Nc1ncc2ccc(=O)n(CC3CC3)c2n1)c1ccc(Cl)cc1` [cpd 20, 2-{[(1S)-1-(4-chlorophenyl)ethyl]amino}-8-(cyclopropylmethyl)pyrido[2,3-d]pyrimidin-7(8H)-one] are 5020 nM, 740 nM and 332 nM.
In the same order, the values of `C[C@H](Nc1ncc2ccc(=O)n(Cc3ccc(F)c(F)c3)c2n1)c1ccc(Cl)cc1` [cpd 23, 2-{[(1S)-1-(4-chlorophenyl)ethyl]amino}-8-(3,4-difluorobenzyl)pyrido[2,3-d]pyrimidin-7(8H)-one] are 3490 nM, 2090 nM and 891 nM.
Consider `CC(C)Cn1c(=O)ccc2cnc(N[C@@H](C)c3ccc(Cl)cc3)nc21` [cpd 19, 2-{[(1S)-1-(4-chlorophenyl)ethyl]amino}-8-(2-methylpropyl)pyrido[2,3-d]pyrimidin-7(8H)-one], for which the IC50 against IDH2^R172K is 6680 nM; in assay [1], 410 nM; against IDH1^R132C, 203 nM.
`C[C@H](Nc1cc2c(ccc(=O)n2CC(C)(C)C)cn1)c1ccc(CN2CCCC(F)(F)C2)cc1` [cpd 235, 7-{(S)-1-[4-(3,3-Difluoro-piperidin-1-ylmethyl)-phenyl]-ethylamino}-1-(2,2-dimethyl-propyl)-1H-[1,6]naphthyridin-2-one]: the IC50 against IDH2^R172K was 5110 nM; in assay [1] it was 128 nM; at IDH1^R132C, 48 nM.
As to `CC(C)[C@H](C)n1c(=O)ccc2cnc(N[C@@H](C)c3cc4cc(Cl)ccc4[nH]c3=O)nc21` [cpd 172, 2-{[(1S)-1-(6-chloro-2-oxo-1,2-dihydroquinolin-3-yl)ethyl]amino}-8-[(2S)-3-methylbutan-2-yl]pyrido[2,3-d]pyrimidin-7(8H)-one], the IC50 against IDH2^R172K is 3590 nM; in assay [1], 179 nM; against IDH1^R132C it was 56 nM.
In the same order, the values of `CC(C)[C@H](C)n1c(=O)ccc2cnc(N[C@@H](C)c3ccc(-c4ccnc(F)c4)cc3)nc21` [cpd 166, 2-({(1S)-1-[4-(2-fluoropyridin-4-yl)phenyl]ethyl}amino)-8-[(2S)-3-methylbutan-2-yl]pyrido[2,3-d]pyrimidin-7(8H)-one] are 7570 nM, 179 nM and 93 nM.
In the same order, the values of `CC(C)[C@H](C)n1c(=O)ccc2cnc(N[C@@H](C)c3ccc(N4CCN(C(=O)OCc5ccccc5)CC4)c(F)c3)nc21` [cpd 178, Benzyl 4-{2-fluoro-4-[(1S)-1-({8-[(2S)-3-methylbutan-2-yl]-7-oxo-7,8-dihydropyrido[2,3-d]pyrimidin-2-yl}amino)ethyl]phenyl}piperazine-1-carboxylate] are 5020 nM, 46 nM and 30 nM.
On to `CC(C)[C@H](C)n1c(=O)ccc2cnc(N[C@@H](C)c3ccc(OC4CCN(C(=O)OCc5ccccc5)CC4)cc3)nc21` [cpd 146, 4-(4-{(S)-1-[8-((S)-1,2-Dimethyl-propyl)-7-oxo-7,8-dihydro-pyrido[2,3-d]pyrimidin-2-ylamino]-ethyl}-phenoxy)-piperidine-1-carboxylic acid benzyl ester], for which the IC50 against IDH2^R172K worked out at 1420 nM; in assay [1], 59 nM; against IDH1^R132C it was 16 nM.
For `CC(Nc1ncc2ccc(=O)n(Cc3ccccc3F)c2n1)c1ccc(CN2CCC(F)(F)CC2)cc1` (stereo not drawn) [cpd 97, 2-[(1-{4-[(4,4-difluoropiperidin-1-yl)methyl]phenyl}ethyl)amino]-8-(2-fluorobenzyl)pyrido[2,3-d]pyrimidin-7(8H)-one], the figures for the IC50 (at IDH2^R172K; in assay [1]; against IDH1^R132C) were 5030 nM, 524 nM and 323 nM, respectively.
